Drawing on PubChem BioAssay (NCI), this text covers GI50 and TGI for 18 molecules.

The structures appear in SMILES notation. Values joined by “and” are separate entries in the source; they are usually repeats but may differ in a detail not shown here. Identical values can stand only once.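 Briefly, cells in 96-well plates were exposed to five compound concentrations for 48 h, and endpoints were estimated by linear interpolation. GI50: concentration for 50% inhibition of growth. TGI: total growth inhibition.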

What all share (experiment): NCI-60 cell line screen, 48 h
Assay [1] relates to HCT-116 colon.
The test system of assay [2] is HT29 colon.
Assay [3] deals with M14 melanoma.
For assay [4], the system named is MALME-3M melanoma.
Assay [5] concerns NCI-H522 lung.
The test system of assay [6] is OVCAR-5 ovarian.
In assay [7] the test system is RPMI-8226 leukemia.
For assay [8], the system named is SF-539 CNS.
Assay [9] has as its system SW-620 colon.
For assay [10], the system named is T-47D breast.

Turning to `O=C1/C(=C/c2ccc(F)cc2)COc2ccc(O)c(O)c21`, the GI50 in [1] is 1.87 µM; in [2], 3.37 µM; in assay [3], 3.21 µM; in [4], 1.68 µM; in [5] it was 0.304 µM; in [6], 3 µM. For the same molecule, the GI50 was 0.26 µM in [7], 1.28 µM in assay [8], 2.03 µM in assay [9] and 2.4 µM in [10]. The TGI was 4.98 µM in [1]; more than 100 µM in assay [2]; 19.2 µM in assay [3]; 4.34 µM in [4]; 1.24 µM in assay [5]; 8.99 µM in assay [6]. In addition, the TGI in assay [7] worked out at 0.714 µM; in [8], 2.7 µM; in [9], 11.3 µM; in assay [10], 9.67 µM.
As for `CCN(Cc1cc(Cl)cc(C)c1O)Cc1c(O)ccc2ccccc12`, the TGI in assay [1] is 33.1 µM; in assay [2], 28.1 µM; in assay [3], 35.9 µM; in [4], 29.8 µM; in [5] it was 31.8 µM; in assay [6] it was 35.2 µM. The TGI in [7] was more than 100 µM; in assay [8], 30 µM; in assay [9] it was 69.7 µM; in [10] it was 35.8 µM.
Turning to `Cc1cccc(CNc2c3ccccc3nc3ccccc23)c1`, the GI50 in assay [1] was 0.927 µM; in assay [2] it was 1.7 µM; in assay [3], 1.57 µM; in [4], 1.66 µM; in assay [5], 1.53 µM; in [6], 1.92 µM. Besides, the GI50 was 1.87 µM in [7], 1.67 µM in assay [8], 1.74 µM in assay [9] and 1.83 µM in assay [10]. Further, the TGI in [1] came to 4.4 µM; in assay [2] it was 10.1 µM; in assay [3] it was 3.35 µM; in assay [4], 3.17 µM; in [5] it was 4.67 µM; in assay [6], 6.81 µM. Moreover, the TGI in assay [7] was 4.94 µM; in [8], 3.14 µM; in assay [9] it was 5.63 µM; in assay [10], 4.61 µM.
With `COc1ccc(/C=C\c2cc(OC)c(OC)c(OC)c2)cc1NC(=O)/C=C/c1ccc(OC)c(OC)c1`, the GI50 is 4.35 µM in assay [1]; 3.39 µM in assay [2]; 4.3 µM in assay [3]; more than 100 µM in assay [4]; 2.61 µM in assay [5]; 7.69 µM in assay [6]. Further, the GI50 is 3.95 µM in assay [7], 3.1 µM in assay [8], 4.88 µM in assay [9] and 5.98 µM in assay [10]. The TGI in assay [1], in assay [2], in assay [3], in [4], in assay [5] and in assay [6] was more than 100 µM throughout. For the same molecule, the TGI in assay [7] is more than 100 µM; in assay [8], 52.6 µM; in assay [9], more than 100 µM; in [10] it was more than 100 µM.
`Cc1cc(NC(=O)NCCOc2ccc(N3C(N)=NC(N)=NC3(C)C)cc2Cl)ccc1S(=O)(=O)F`: the GI50 is 0.545 µM in [1]; 0.484 µM in assay [2]; 4.1 µM in assay [3]; 7.46 µM in assay [4]; 2.54 µM in assay [5]; 1.44 µM in assay [6]. For the same molecule, the GI50 in assay [7] was 3.46 µM; in assay [8], 2.93 µM; in assay [9], 0.661 µM; in assay [10], 5.13 µM. The TGI was more than 100 µM in assay [1]; 13.8 µM in assay [2]; more than 100 µM in assay [3]; 41.1 µM in assay [4]; 17.7 µM in assay [5]; more than 100 µM in [6]. In addition, the TGI in assay [7] is more than 55 µM; in [8], 18.1 µM; in [9] it was more than 100 µM; in assay [10] it was 74.9 µM.
Turning to `CN(C)S(=O)(=O)c1cccc(C(=O)Nc2nc(-c3ccc(F)c(F)c3)cs2)c1`, the GI50 was 7.62 µM in assay [1]; 14 µM in assay [2]; 23.5 µM in assay [3]; 18.6 µM in assay [4]; 5.71 µM in assay [5]; 98.4 µM in assay [6]. Moreover, the GI50 in assay [7] was 4.51 µM; in [8], 15.3 µM; in assay [9], 47.9 µM; in [10] it was 3.77 µM. Moreover, the TGI in [1] was more than 100 µM; in [2] it was more than 100 µM; in assay [3], more than 100 µM; in assay [4], 99.4 µM; in [5] it was more than 100 µM; in assay [6], more than 100 µM. Also, the TGI in assay [7] was more than 29.4 µM; in [8] it was 58 µM; in assay [9], more than 100 µM; in assay [10], more than 100 µM.
Turning to `CC(=O)c1cc2c(Br)cccc2oc1=O`, the TGI in assay [1], in assay [2], in assay [3], in assay [4], in [5] and in [6] was more than 100 µM throughout. The TGI in assay [7], in assay [8], in assay [9] and in [10] was more than 100 µM each time.
For the molecule `OCc1c(-c2cccs2)oc(-c2cccs2)c1CO`, the GI50 was 44.1 µM in assay [1]; 41 µM in assay [2]; 47.8 µM in [3]; 30.1 µM in assay [4]; 39.1 µM in assay [5]; 69.2 µM in [6]. In addition, the GI50 in [7] is 41.5 µM; in assay [8] it was 50.9 µM; in assay [9] it was 63.6 µM; in assay [10], 17.3 µM. Moreover, the TGI in assay [1] was more than 100 µM; in assay [2], more than 100 µM; in assay [3] it was more than 100 µM; in [4] it was 94.6 µM; in assay [5], more than 100 µM; in assay [6] it was more than 100 µM. In addition, the TGI in [7], in assay [8], in assay [9] and in [10] was more than 100 µM in each case.
On to `Nc1nc(N)nc(CCCCc2nc(N)nc(N)n2)n1`, for which the TGI in assay [1], in assay [2], in assay [3], in assay [4], in assay [5] and in [6] was more than 100 µM each time. Also, the TGI in assay [7], in assay [8], in assay [9] and in assay [10] was more than 100 µM throughout.
`NCC(=O)Nc1ccc(Cl)cc1C(=O)c1ccc[nH]1`: the TGI in assay [1] is more than 100 µM; in assay [2], more than 100 µM; in assay [3], more than 100 µM; in assay [4] it was more than 100 µM; in assay [5], 50.1 µM; in assay [6], more than 100 µM. Moreover, the TGI in assay [7], in assay [8], in assay [9] and in [10] was more than 100 µM throughout.
Regarding `CN[C@@H](C)C(=O)N[C@H](C(=O)N1CCC[C@H]1c1nc(C(=O)c2ccc(F)cc2)cs1)C1CCCCC1`, the GI50 was 27 µM in [1]; 20.5 µM in assay [2]; 19.4 µM in assay [3]; 4.08 µM in [4]; 3.45 µM in assay [5]; 27 µM in assay [6]. Further, the GI50 was 16.6 µM in assay [7], 0.838 µM in assay [8], 27.4 µM in [9] and 20.4 µM in assay [10]. Also, the TGI in assay [1] is more than 95.5 µM; in assay [2] it was 42.8 µM; in assay [3], 38.4 µM; in assay [4], 20 µM; in assay [5] it was 16.5 µM; in [6] it was more than 78.9 µM. For the same molecule, the TGI in [7] was 55.4 µM; in assay [8], 17.6 µM; in assay [9] it was more than 77.6 µM; in [10], 77.8 µM.
`C[C@H]1C[C@@H](n2c(Nc3ccc(OC(F)(F)F)cc3)nc3cc(CCC(=O)O)ccc32)CC(C)(C)C1`: the GI50 in assay [1] is 5.04 µM; in [2], 14.6 µM; in assay [3], 7.09 µM; in [4], 16.2 µM; in assay [5], 14 µM; in assay [6], 17 µM. Also, the GI50 in assay [7] was 10.1 µM; in assay [8], 13.1 µM; in assay [9], 15.3 µM; in [10], 14.3 µM. Besides, the TGI in assay [1] is 18.5 µM; in assay [2], 30.9 µM; in assay [3] it was 25 µM; in assay [4], 37.3 µM; in [5] it was 33.2 µM; in assay [6], 31.5 µM. For the same molecule, the TGI turned out to be 50.9 µM in [7], 37.7 µM in assay [8], 32.5 µM in assay [9] and 44.5 µM in assay [10].
`O=C1OC(c2ccc([N+](=O)[O-])cc2)=N/C1=C\c1ccc(Cl)cc1`: the TGI in [1], in assay [2], in assay [3], in [4], in assay [5] and in assay [6] was more than 100 µM in each case. The TGI in [7], in [8], in assay [9] and in [10] was more than 100 µM throughout.
`CC(=O)CC[N+](C)(C)C`: the TGI in [1] was 54.4 µM; in [2], 53.5 µM; in assay [3] it was 52.1 µM; in assay [4], 24.2 µM; in [5] it was 1.96 µM; in assay [6], 67.6 µM. For the same molecule, the TGI in assay [7] amounted to 26 µM; in [8] it was 82.9 µM; in assay [9], 27.8 µM; in assay [10], 52.7 µM.
On to `COc1ccc2[nH]c3c(C)c4c(c(C)c3c2c1)CN(C)C=C4`, for which the TGI in [1] amounted to 22.1 µM; in assay [2], 22.3 µM; in assay [3], 22.7 µM; in assay [4], 3.92 µM; in assay [5] it was 6.34 µM; in [6], 47 µM. Moreover, the TGI in assay [7] was 61.9 µM; in [8] it was 2 µM; in assay [9] it was 18.3 µM; in assay [10], 14.9 µM.
With `CCN1C(=O)N(CC)C2C1NN=c1s/c(=C3\C(=O)Nc4ccccc43)c(=O)n12` (stereo not given), the GI50 in assay [1] is 0.485 µM; in [2] it was 0.374 µM; in assay [3] it was 0.33 µM; in assay [4] it was 0.557 µM; in [5] it was 0.373 µM; in assay [6], 2.31 µM. The GI50 in assay [7] is 0.306 µM; in assay [8] it was 0.309 µM; in assay [9], 0.409 µM; in assay [10], 0.42 µM. The TGI was more than 61.6 µM in [1]; more than 100 µM in assay [2]; 3.36 µM in [3]; 38.4 µM in assay [4]; more than 43.6 µM in [5]; more than 100 µM in assay [6]. Further, the TGI in assay [7] was 6.06 µM; in assay [8], 1.7 µM; in assay [9] it was more than 100 µM; in [10] it was more than 100 µM.
On to `CCc1nc(N)nc(N)c1C#CC(C)c1ccc(-c2ccncc2)cc1Cl` (stereo not given), for which the GI50 was less than 0.005 µM in assay [1]; 0.00589 µM and 0.012 µM in assay [2]; < 0.005 µM and 0.0121 µM in assay [3]; 0.0378 µM and 0.307 µM in [4]; 0.0477 µM and 0.0346 µM in assay [5]; 0.115 µM and 0.133 µM in [6]. The GI50 is 0.145 µM and 0.0946 µM in [7]; 0.0159 µM and 0.0423 µM in [8]; less than 0.005 µM in assay [9]; 0.0896 µM and 0.675 µM in [10]. For the same molecule, the TGI in assay [1] is 2.77 µM and 13 µM; in assay [2] it was 5.82 µM and 2.45 µM; in [3], 1.61 µM and 10.3 µM; in assay [4], 1.93 µM and 13.1 µM; in [5], 2.97 µM and 4.06 µM; in assay [6], 6.17 µM and 18.6 µM. Besides, the TGI in assay [7] is 1.7 µM and 10.8 µM; in [8], 1.56 µM and 10.4 µM; in [9] it was 6.58 µM and 14.9 µM; in assay [10], 2.2 µM and 13.6 µM.
For the molecule `O=C(O)CCC(O)=C1S(=O)(=O)OCCOS1(=O)=O`, the TGI in assay [1], in [2], in assay [3], in assay [4], in assay [5] and in assay [6] was more than 100 µM in each case. Moreover, the TGI in [7], in assay [8], in [9] and in [10] was more than 100 µM in each case.
